ChEMBL document CHEMBL1146065, “Structure-based optimization of azole antifungal agents by CoMFA, CoMSIA, and molecular docking” (2006)
Converted amounts (≈) assume the structure as drawn.

What was measured:
Format in all cases: functional
[1] = tested on: Candida albicans; assay: Antifungal activity against Candida albicans
[2] = tested on: Candida tropicalis; assay: Antifungal activity against Candida tropicalis
[3] = tested on: Trichophyton rubrum; assay: Antifungal activity against Trichophyton rubrum
[4] = tested on: Sporothrix schenckii; assay: Antifungal activity against Sporothrix schenckii
[5] = tested on: Candida parapsilosis; assay: Antifungal activity against Candida parapsilosis; settings: Lodderomyces parapsilosis
[6] = tested on: Fonsecaea pedrosoi; assay: Antifungal activity against Fonsecaea pedrosoi
[7] = tested on: Aspergillus fumigatus; assay: Antifungal activity against Aspergillus fumigatus
[8] = tested on: Cryptococcus neoformans; assay: Antifungal activity against Cryptococcus neoformans

CN(Cc1ccc(-n2cnn(Cc3ccc(Cl)cc3Cl)c2=O)cc1)CC(O)(Cn1cncn1)c1ccc(F)cc1F (centres undefined)
MIC80 [1]: 0.002 µg/mL
MIC80 [2]: 0.0625 µg/mL (≈ 0.104 µM)
MIC80 [3]: 0.25 µg/mL (≈ 0.416 µM)
MIC80 [4]: 4 µg/mL (≈ 6.66 µM)
MIC80 [5]: 0.008 µg/mL (≈ 0.0133 µM)
MIC80 [6]: 0.125 µg/mL (≈ 0.208 µM)
MIC80 [7]: 2 µg/mL (≈ 3.33 µM)
MIC80 [8]: 0.008 µg/mL (≈ 0.0133 µM)

CCc1ccc(CN2CCN(CC(O)(Cn3cncn3)c3ccc(F)cc3F)CC2)cc1 (centres undefined)
MIC80 [1]: 0.566 µM

OC(CN1CCN(Cc2cccc(Cl)c2)CC1)(Cn1cncn1)c1ccc(F)cc1F (centres undefined)
MIC80 [1]: 0.14 µM

OC(CN1CCN(Cc2cccc(I)c2)CC1)(Cn1cncn1)c1ccc(F)cc1F (centres undefined)
MIC80 [1]: 0.232 µM

Cc1ccc(Cn2ncn(-c3ccc(CN(C)CC(O)(Cn4cncn4)c4ccc(F)cc4F)cc3)c2=O)cc1 (centres undefined)
MIC80 [1]: 0.002 µg/mL
MIC80 [2]: 0.5 µg/mL (≈ 0.916 µM)
MIC80 [3]: 1 µg/mL (≈ 1.83 µM)
MIC80 [4]: 64 µg/mL (≈ 117 µM)
MIC80 [5]: 0.125 µg/mL (≈ 0.229 µM)
MIC80 [6]: 0.25 µg/mL (≈ 0.458 µM)
MIC80 [7]: 32 µg/mL (≈ 58.7 µM)
MIC80 [8]: 1 µg/mL (≈ 1.83 µM)

CN(Cc1ccc(-n2cnn(Cc3ccc(C(F)(F)F)cc3)c2=O)cc1)CC(O)(Cn1cncn1)c1ccc(F)cc1F (centres undefined)
MIC80 [1]: 0.001 µg/mL
MIC80 [2]: 0.0625 µg/mL (≈ 0.104 µM)
MIC80 [3]: 0.5 µg/mL (≈ 0.834 µM)
MIC80 [4]: 16 µg/mL (≈ 26.7 µM)
MIC80 [5]: 0.008 µg/mL (≈ 0.0133 µM)
MIC80 [6]: 0.0625 µg/mL (≈ 0.104 µM)
MIC80 [7]: 8 µg/mL (≈ 13.3 µM)
MIC80 [8]: 0.25 µg/mL (≈ 0.417 µM)

O=[N+]([O-])c1ccc(Cl)c(CN2CCN(CC(O)(Cn3cncn3)c3ccc(F)cc3F)CC2)c1 (centres undefined)
MIC80 [1]: 0.254 µM

CN(Cc1ccc(-n2cnn(CC(=O)c3ccc(Cl)cc3Cl)c2=O)cc1)CC(O)(Cn1cncn1)c1ccc(F)cc1F (centres undefined)
MIC80 [1]: 0.031 µg/mL
MIC80 [2]: 0.125 µg/mL (≈ 0.199 µM)
MIC80 [3]: 32 µg/mL (≈ 50.9 µM)
MIC80 [4]: 64 µg/mL (≈ 102 µM)
MIC80 [5]: 1 µg/mL (≈ 1.59 µM)
MIC80 [6]: 4 µg/mL (≈ 6.36 µM)
MIC80 [7]: 64 µg/mL (≈ 102 µM)
MIC80 [8]: 16 µg/mL (≈ 25.5 µM)

OC(CN1CCN(Cc2ccc(F)cc2Br)CC1)(Cn1cncn1)c1ccc(F)cc1F (centres undefined)
MIC80 [1]: 0.122 µM

CN(Cc1ccc(-n2cnn(CC(=O)c3ccc(Cl)cc3)c2=O)cc1)CC(O)(Cn1cncn1)c1ccc(F)cc1F (centres undefined)
MIC80 [1]: 0.004 µg/mL
MIC80 [2]: 0.0625 µg/mL (≈ 0.105 µM)
MIC80 [3]: 4 µg/mL (≈ 6.73 µM)
MIC80 [4]: 64 µg/mL (≈ 108 µM)
MIC80 [5]: 0.03 µg/mL (≈ 0.0505 µM)
MIC80 [6]: 0.25 µg/mL (≈ 0.421 µM)
MIC80 [7]: 64 µg/mL (≈ 108 µM)
MIC80 [8]: 2 µg/mL (≈ 3.37 µM)

Nc1ccc(C(=O)N2CCN(CC(O)(Cn3cncn3)c3ccc(F)cc3F)CC2)cc1 (centres undefined)
MIC80 [1]: 36.2 µM

OC(CN1CCN(Cc2ccc(I)cc2)CC1)(Cn1cncn1)c1ccc(F)cc1F (centres undefined)
MIC80 [1]: 0.116 µM

Cc1cccc(Cn2ncn(-c3ccc(CN(C)CC(O)(Cn4cncn4)c4ccc(F)cc4F)cc3)c2=O)c1 (centres undefined)
MIC80 [1]: 0.004 µg/mL
MIC80 [2]: 0.125 µg/mL (≈ 0.229 µM)
MIC80 [3]: 0.5 µg/mL (≈ 0.916 µM)
MIC80 [4]: 64 µg/mL (≈ 117 µM)
MIC80 [5]: 0.008 µg/mL (≈ 0.0147 µM)
MIC80 [6]: 1.25 µg/mL (≈ 2.29 µM)
MIC80 [7]: 16 µg/mL (≈ 29.3 µM)
MIC80 [8]: 1 µg/mL (≈ 1.83 µM)

OC(CN1CCN(c2cccc(C(F)(F)F)c2)CC1)(Cn1cncn1)c1ccc(F)cc1F (centres undefined)
MIC80 [1]: 0.032 µM

OC(CN1CCN(Cc2ccc(Br)cc2)CC1)(Cn1cncn1)c1ccc(F)cc1F (centres undefined)
MIC80 [1]: 0.254 µM

CN(Cc1ccc(-n2cnn(Cc3ccc(OC(F)(F)F)cc3)c2=O)cc1)CC(O)(Cn1cncn1)c1ccc(F)cc1F (centres undefined)
MIC80 [1]: 0.002 µg/mL
MIC80 [2]: 0.0312 µg/mL (≈ 0.0508 µM)
MIC80 [3]: 0.25 µg/mL (≈ 0.406 µM)
MIC80 [4]: 32 µg/mL (≈ 52 µM)
MIC80 [5]: 0.008 µg/mL (≈ 0.013 µM)
MIC80 [6]: 0.125 µg/mL (≈ 0.203 µM)
MIC80 [7]: 8 µg/mL (≈ 13 µM)
MIC80 [8]: 0.016 µg/mL (≈ 0.026 µM)

CC(C)(C)c1ccc(N2CCN(CC(O)(Cn3cncn3)c3ccc(F)cc3F)CC2)cc1 (centres undefined)
MIC80 [1]: 0.137 µM

CN(Cc1ccc(-n2cnn(Cc3ccc([N+](=O)[O-])cc3)c2=O)cc1)CC(O)(Cn1cncn1)c1ccc(F)cc1F (centres undefined)
MIC80 [1]: 0.0625 µg/mL
MIC80 [2]: 0.0625 µg/mL (≈ 0.108 µM)
MIC80 [3]: 16 µg/mL (≈ 27.8 µM)
MIC80 [4]: 64 µg/mL (≈ 111 µM)
MIC80 [5]: 0.25 µg/mL (≈ 0.434 µM)
MIC80 [6]: 4 µg/mL (≈ 6.94 µM)
MIC80 [7]: 64 µg/mL (≈ 111 µM)
MIC80 [8]: 16 µg/mL (≈ 27.8 µM)

OC(CN1CCN(c2ccccn2)CC1)(Cn1cncn1)c1ccc(F)cc1F (centres undefined)
MIC80 [1]: 0.156 µM

OC(CN1CCN(Cc2ccc(Cl)cc2Cl)CC1)(Cn1cncn1)c1ccc(F)cc1F (centres undefined)
MIC80 [1]: 0.0331 µM

CC(C)(C)c1ccc(CN2CCN(CC(O)(Cn3cncn3)c3ccc(F)cc3F)CC2)cc1 (centres undefined)
MIC80 [1]: 0.034 µM

COc1ccc(C(=O)Cn2ncn(-c3ccc(CN(C)CC(O)(Cn4cncn4)c4ccc(F)cc4F)cc3)c2=O)cc1 (centres undefined)
MIC80 [1]: 0.016 µg/mL
MIC80 [2]: 0.125 µg/mL (≈ 0.212 µM)
MIC80 [3]: 4 µg/mL (≈ 6.78 µM)
MIC80 [4]: 64 µg/mL (≈ 109 µM)
MIC80 [5]: 0.03 µg/mL (≈ 0.0509 µM)
MIC80 [6]: 1 µg/mL (≈ 1.7 µM)
MIC80 [7]: 32 µg/mL (≈ 54.3 µM)
MIC80 [8]: 8 µg/mL (≈ 13.6 µM)

OC(CN1CCN(c2cc(C(F)(F)F)cc(Cl)n2)CC1)(Cn1cncn1)c1ccc(F)cc1F (centres undefined)
MIC80 [1]: 0.124 µM

Cc1cccc(CN2CCN(CC(O)(Cn3cncn3)c3ccc(F)cc3F)CC2)c1 (centres undefined)
MIC80 [1]: 0.292 µM

Cc1ccc(C(=O)N2CCN(CC(O)(Cn3cncn3)c3ccc(F)cc3F)CC2)cc1 (centres undefined)
MIC80 [1]: 18.1 µM

OC(CN1CCN(Cc2ccc(Cl)cc2)CC1)(Cn1cncn1)c1ccc(F)cc1F (centres undefined)
MIC80 [1]: 0.0357 µM

OC(CN1CCN(Cc2ccc(F)cc2)CC1)(Cn1cncn1)c1ccc(F)cc1F (centres undefined)
MIC80 [1]: 0.579 µM

CC(C)(C)c1ccc(C(=O)N2CCN(CC(O)(Cn3cncn3)c3ccc(F)cc3F)CC2)cc1 (centres undefined)
MIC80 [1]: 1.03 µM

O=C(c1cccc([N+](=O)[O-])c1)N1CCN(CC(O)(Cn2cncn2)c2ccc(F)cc2F)CC1 (centres undefined)
MIC80 [1]: 16.9 µM

CC(=O)c1ccc(N2CCN(CC(O)(Cn3cncn3)c3ccc(F)cc3F)CC2)cc1 (centres undefined)
MIC80 [1]: 0.0339 µM

OC(CN1CCN(Cc2cc(F)ccc2Br)CC1)(Cn1cncn1)c1ccc(F)cc1F (centres undefined)
MIC80 [1]: 0.122 µM

O=C(c1ccccc1)N1CCN(CC(O)(Cn2cncn2)c2ccc(F)cc2F)CC1 (centres undefined)
MIC80 [1]: 2.34 µM

OC(CN1CCN(Cc2ccccc2Cl)CC1)(Cn1cncn1)c1ccc(F)cc1F (centres undefined)
MIC80 [1]: 0.558 µM

O=C(c1ccc(Cl)cc1)N1CCN(CC(O)(Cn2cncn2)c2ccc(F)cc2F)CC1 (centres undefined)
MIC80 [1]: 0.541 µM

OC(CN1CCN(Cc2ccccc2F)CC1)(Cn1cncn1)c1ccc(F)cc1F (centres undefined)
MIC80 [1]: 4.64 µM

N#Cc1ccc(CN2CCN(CC(O)(Cn3cncn3)c3ccc(F)cc3F)CC2)cc1 (centres undefined)
MIC80 [1]: 0.285 µM

Cc1ccccc1C(=O)N1CCN(CC(O)(Cn2cncn2)c2ccc(F)cc2F)CC1 (centres undefined)
MIC80 [1]: 36.2 µM

O=C(c1ccc(F)cc1)N1CCN(CC(O)(Cn2cncn2)c2ccc(F)cc2F)CC1 (centres undefined)
MIC80 [1]: 2.23 µM

O=C(c1ccc([N+](=O)[O-])cc1)N1CCN(CC(O)(Cn2cncn2)c2ccc(F)cc2F)CC1 (centres undefined)
MIC80 [1]: 1.06 µM

Cc1cccc(C(=O)N2CCN(CC(O)(Cn3cncn3)c3ccc(F)cc3F)CC2)c1 (centres undefined)
MIC80 [1]: 2.27 µM

O=C(c1ccccc1Cl)N1CCN(CC(O)(Cn2cncn2)c2ccc(F)cc2F)CC1 (centres undefined)
MIC80 [1]: 2.16 µM

N#Cc1ccc(N2CCN(CC(O)(Cn3cncn3)c3ccc(F)cc3F)CC2)cc1 (centres undefined)
MIC80 [1]: 0.0324 µM

CCC(C)n1ncn(-c2ccc(N3CCN(c4ccc(OCC5COC(Cn6cncn6)(c6ccc(Cl)cc6Cl)O5)cc4)CC3)cc2)c1=O (centres undefined) [ITRACONAZOLE]
MIC80 [1]: 0.125 µg/mL
MIC80 [2]: 0.125 µg/mL (≈ 0.177 µM)
MIC80 [3]: 1 µg/mL (≈ 1.42 µM)
MIC80 [5]: 0.25 µg/mL (≈ 0.354 µM)
MIC80 [6]: 0.5 µg/mL (≈ 0.709 µM)
MIC80 [7]: 1 µg/mL (≈ 1.42 µM)
MIC80 [8]: 2 µg/mL (≈ 2.83 µM)

Cc1ccc(CN2CCN(CC(O)(Cn3cncn3)c3ccc(F)cc3F)CC2)cc1 (centres undefined)
MIC80 [1]: 2.34 µM

O=Cc1ccc(N2CCN(CC(O)(Cn3cncn3)c3ccc(F)cc3F)CC2)cc1 (centres undefined)
MIC80 [1]: 0.035 µM

COc1ccc(C(=O)N2CCN(CC(O)(Cn3cncn3)c3ccc(F)cc3F)CC2)cc1 (centres undefined)
MIC80 [1]: 0.273 µM

OC(CN1CCN(Cc2ccc(Br)cc2F)CC1)(Cn1cncn1)c1ccc(F)cc1F (centres undefined)
MIC80 [1]: 0.0612 µM

COc1ccccc1C(=O)N1CCN(CC(O)(Cn2cncn2)c2ccc(F)cc2F)CC1 (centres undefined)
MIC80 [1]: 17.5 µM

OC(CN1CCN(c2ccncc2)CC1)(Cn1cncn1)c1ccc(F)cc1F (centres undefined)
MIC80 [1]: 2.5 µM

O=[N+]([O-])c1ccccc1CN1CCN(CC(O)(Cn2cncn2)c2ccc(F)cc2F)CC1 (centres undefined)
MIC80 [1]: 34.9 µM
